Laboratory results: ChEMBL document CHEMBL6134880, “Targeting Oncogenic Pathways: Advances in KRAS, CDK, EGFR, and PROTAC-Based Therapies” (ACS Med Chem Lett, 2025)

Columns and labels:
[1] = (§1) Inhibition of GST-tagged KRAS G12V mutant (2 to 169 residues) (unknown origin)/SOS1 catalytic domain (564 to 1069 residues) (unknown origin) protein-protein interaction preincubated with compound for 60 mins followed by SOS1 and GTP-DY-647P1 addition and measured after 90 mins by fluorescence based nucleotide exchange assay; parameters: species or system Homo sapiens
SOS1-KRAS = SOS1-KRAS (Homo sapiens, UniProt P01116, G12D); test: as §1, with “G12D” for “G12V”, “30” for “90”; assay type: protein-complex assay

Row | Structure (SMILES) | IC50 [1] [µM] | IC50 (SOS1-KRAS) [µM]
1 | N#Cc1c(N)sc2c1C1(CC2)CN(c2nc(OCC3(CN4CCOCC4)CC3)nc(N3C[C@H]4CC[C@@H](C3)N4)n2)C1 | 0.01 | < 0.01
2 | C=C1CN2CCCC2(COc2nc(N3CC4(CCc5sc(N)c(C#N)c54)C3)nc(N3CCC[C@@](C)(O)C3)n2)C1 (some centres undefined) | < 0.01 | < 0.01
3 | N#Cc1c(N)sc2c1C1(CC2)CN(c2nc(OCC3(CN4CCOCC4)CC3)nc(N3CCCC4(C3)NC(=O)NC4=O)n2)C1 (centres undefined) | < 0.01 | < 0.01
4 | CC1(O)CCN(c2nc(OCC3(CN4CCOCC4)CC3)nc(N3CC4(CCc5sc(N)c(C#N)c54)C3)n2)CC1 | < 0.01 | < 0.01
5 | N#Cc1c(N)sc2c1C1(CC2)CN(c2nc(OC[C@@]34CCCN3C[C@H](F)C4)nc(N3CCCC4(C3)NC(=O)NC4=O)n2)C1 (some centres undefined) | < 0.01 | < 0.01
6 | CC1(O)CCCCN(c2nc(OC[C@@]34CCCN3C[C@H](F)C4)nc(N3CC4(CCc5sc(N)c(C#N)c54)C3)n2)C1 (some centres undefined) | < 0.01 | 0.01
7 | CN(C)CC1(COc2nc(N3CC4(CCc5sc(N)c(C#N)c54)C3)nc(N3CCC[C@@](C)(O)C3)n2)CC1(F)F (some centres undefined) | < 0.01 | < 0.01

Next, values leading:

Row | IC50 [1] [µM] | IC50 (SOS1-KRAS) [µM] | Structure (SMILES)
8 | < 0.01 | < 0.01 | C[C@@]1(O)CCCN(c2nc(OC[C@@]34CCCN3C[C@H](F)C4)nc(N3CC4(CCc5sc(N)c(C#N)c54)C3)n2)C1
9 | < 0.01 | < 0.01 | C[C@@]1(O)C[C@@H](O)CN(c2nc(OC[C@@]34CCCN3C[C@H](F)C4)nc(N3CC4(CCc5sc(N)c(C#N)c54)C3)n2)C1
10 | < 0.01 | 0.01 | N#Cc1c(N)sc2c1C1(CC2)CN(c2nc(OC[C@@]34CCCN3C[C@H](F)C4)nc(N3CCCC(C#N)CC3)n2)C1 (some centres undefined)
11 | < 0.01 | < 0.01 | C[C@@]1(O)CCCN(c2nc(OC[C@@]34CCCN3C[C@H](F)C4)nc(N3CC4(C3)SCc3sc(N)c(C#N)c34)n2)C1
12 | < 0.01 | 0.01 | N#Cc1c(N)sc2c1C1(CC2)CN(c2nc(OC[C@@]34CCCN3C[C@H](F)C4)nc(N3CCCCC(O)C3)n2)C1 (some centres undefined)
